ChEMBL document CHEMBL5661979, “Pharmacological inhibition of BMK1 suppresses tumor growth through promyelocytic leukemia protein” (Cancer Cell, 2010)

Legend:
[1] = biological target: Serine/threonine-protein kinase tousled-like 1 (Homo sapiens, UniProt Q9UKI8); experiment: Inhibition of TLK1 in human HeLa cells lysate pre incubated for 15 mins followed by ADP acyl phosphate probe addition and measured after 10 mins by LC-MS/MS analysis; assay type: subcellular
[2] = biological target: T1, Mitogen-activated protein kinase kinase kinase kinase 2 (Homo sapiens) (UniProt Q12851); experiment: Inhibition of GCK in human HeLa cells lysate at 2 uM pre incubated for 15 mins followed by ADP acyl phosphate probe addition and measured after 10 mins by LC-MS/MS analysis relative to control; assay type: subcellular; conditions: time 25.0 min
T1 sequence (whole entry): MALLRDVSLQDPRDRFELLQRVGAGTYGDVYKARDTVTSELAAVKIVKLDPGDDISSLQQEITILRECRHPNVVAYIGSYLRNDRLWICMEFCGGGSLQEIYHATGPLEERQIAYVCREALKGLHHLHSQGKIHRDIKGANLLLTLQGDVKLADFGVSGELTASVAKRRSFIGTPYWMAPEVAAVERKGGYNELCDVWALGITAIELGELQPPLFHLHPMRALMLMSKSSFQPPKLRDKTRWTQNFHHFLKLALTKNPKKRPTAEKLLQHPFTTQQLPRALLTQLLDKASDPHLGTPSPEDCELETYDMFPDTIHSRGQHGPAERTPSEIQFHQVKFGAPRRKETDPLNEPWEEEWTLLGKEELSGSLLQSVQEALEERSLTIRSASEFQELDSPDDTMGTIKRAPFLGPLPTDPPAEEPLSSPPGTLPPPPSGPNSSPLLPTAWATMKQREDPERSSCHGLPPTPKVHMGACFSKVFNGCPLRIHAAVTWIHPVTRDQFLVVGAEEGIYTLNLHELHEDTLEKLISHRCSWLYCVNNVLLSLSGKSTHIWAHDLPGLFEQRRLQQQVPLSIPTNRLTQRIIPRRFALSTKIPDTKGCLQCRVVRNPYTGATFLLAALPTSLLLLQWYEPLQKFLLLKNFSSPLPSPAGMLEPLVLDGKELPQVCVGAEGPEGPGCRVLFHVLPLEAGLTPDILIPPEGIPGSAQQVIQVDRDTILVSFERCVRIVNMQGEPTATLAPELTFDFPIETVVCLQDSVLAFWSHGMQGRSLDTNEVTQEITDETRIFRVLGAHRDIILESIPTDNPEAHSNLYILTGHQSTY

[3] = biological target: T2, Scaffold protein ILK (Homo sapiens) (UniProt Q13418); experiment: Inhibition of ILK in human HeLa cells lysate at 50 uM pre incubated for 15 mins followed by ATP acyl phosphate probe addition and measured after 10 mins by LC-MS/MS analysis relative to control; assay type: subcellular; conditions: time 25.0 min
T2 sequence (whole entry): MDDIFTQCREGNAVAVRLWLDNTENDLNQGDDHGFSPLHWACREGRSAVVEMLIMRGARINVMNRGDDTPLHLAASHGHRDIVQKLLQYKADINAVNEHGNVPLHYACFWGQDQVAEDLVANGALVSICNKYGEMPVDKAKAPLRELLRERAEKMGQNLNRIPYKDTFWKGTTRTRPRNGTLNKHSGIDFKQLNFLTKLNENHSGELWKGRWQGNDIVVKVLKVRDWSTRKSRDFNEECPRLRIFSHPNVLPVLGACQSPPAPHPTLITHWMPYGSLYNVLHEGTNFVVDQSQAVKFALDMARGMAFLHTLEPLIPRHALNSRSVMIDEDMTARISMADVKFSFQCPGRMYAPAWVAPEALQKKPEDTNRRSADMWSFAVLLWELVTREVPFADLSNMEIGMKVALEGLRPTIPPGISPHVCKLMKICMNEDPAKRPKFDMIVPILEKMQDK

[4] = Inhibition of HGK/MINK/TNIK in human HeLa cells lysate at 50 uM pre incubated for 15 mins followed by ADP acyl phosphate probe addition and measured after 10 mins by LC-MS/MS analysis relative to control; conditions: 25 min, condition cancer
[5] = biological target: Serine/threonine-protein kinase PLK1 (Homo sapiens, UniProt P53350); experiment: Inhibition of PLK1 splice variant in human HeLa cells lysate pre incubated for 15 mins followed by ADP acyl phosphate probe addition and measured after 10 mins by LC-MS/MS analysis; assay type: subcellular
[6] = biological target: T3, Serine/threonine-protein kinase 4 (Homo sapiens) (UniProt Q13043); experiment: Inhibition of MST1 in human HeLa cells lysate at 2 uM pre incubated for 15 mins followed by ATP acyl phosphate probe addition and measured after 10 mins by LC-MS/MS analysis relative to control; assay type: subcellular; conditions: time 25.0 min
T3 sequence (whole entry): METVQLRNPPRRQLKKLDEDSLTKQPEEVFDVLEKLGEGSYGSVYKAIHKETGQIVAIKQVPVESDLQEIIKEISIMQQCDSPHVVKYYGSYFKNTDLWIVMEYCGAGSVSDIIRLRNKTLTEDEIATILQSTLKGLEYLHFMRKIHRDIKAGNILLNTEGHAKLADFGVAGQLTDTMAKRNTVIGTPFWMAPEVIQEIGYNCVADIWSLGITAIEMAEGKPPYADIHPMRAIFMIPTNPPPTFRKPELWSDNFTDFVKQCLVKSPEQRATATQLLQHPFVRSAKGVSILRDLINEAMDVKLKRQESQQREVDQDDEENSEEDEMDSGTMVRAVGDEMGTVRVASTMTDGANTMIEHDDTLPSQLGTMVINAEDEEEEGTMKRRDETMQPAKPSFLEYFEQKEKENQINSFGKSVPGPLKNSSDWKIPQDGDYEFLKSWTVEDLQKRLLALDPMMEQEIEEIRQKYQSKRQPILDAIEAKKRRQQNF

[7] = biological target: Mitogen-activated protein kinase 14 (Homo sapiens, UniProt Q16539); experiment: Inhibition of p38a in human HeLa cells lysate at 2 uM pre incubated for 15 mins followed by ATP acyl phosphate probe addition and measured after 10 mins by LC-MS/MS analysis relative to control; assay type: subcellular; conditions: time 25.0 min
Chain of Mitogen-activated protein kinase 14 (Q16539 whole entry): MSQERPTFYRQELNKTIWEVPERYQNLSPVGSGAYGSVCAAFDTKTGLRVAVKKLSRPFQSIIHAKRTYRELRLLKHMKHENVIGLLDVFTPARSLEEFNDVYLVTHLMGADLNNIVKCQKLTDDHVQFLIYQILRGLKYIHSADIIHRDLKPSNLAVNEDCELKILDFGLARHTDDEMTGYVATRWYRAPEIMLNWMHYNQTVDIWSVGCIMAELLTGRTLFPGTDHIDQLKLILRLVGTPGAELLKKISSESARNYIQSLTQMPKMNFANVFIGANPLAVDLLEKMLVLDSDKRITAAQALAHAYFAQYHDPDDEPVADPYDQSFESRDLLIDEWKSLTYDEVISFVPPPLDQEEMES

Chain of Serine/threonine-protein kinase PLK1 (P53350 2-603 limits assumed, stated change not applied): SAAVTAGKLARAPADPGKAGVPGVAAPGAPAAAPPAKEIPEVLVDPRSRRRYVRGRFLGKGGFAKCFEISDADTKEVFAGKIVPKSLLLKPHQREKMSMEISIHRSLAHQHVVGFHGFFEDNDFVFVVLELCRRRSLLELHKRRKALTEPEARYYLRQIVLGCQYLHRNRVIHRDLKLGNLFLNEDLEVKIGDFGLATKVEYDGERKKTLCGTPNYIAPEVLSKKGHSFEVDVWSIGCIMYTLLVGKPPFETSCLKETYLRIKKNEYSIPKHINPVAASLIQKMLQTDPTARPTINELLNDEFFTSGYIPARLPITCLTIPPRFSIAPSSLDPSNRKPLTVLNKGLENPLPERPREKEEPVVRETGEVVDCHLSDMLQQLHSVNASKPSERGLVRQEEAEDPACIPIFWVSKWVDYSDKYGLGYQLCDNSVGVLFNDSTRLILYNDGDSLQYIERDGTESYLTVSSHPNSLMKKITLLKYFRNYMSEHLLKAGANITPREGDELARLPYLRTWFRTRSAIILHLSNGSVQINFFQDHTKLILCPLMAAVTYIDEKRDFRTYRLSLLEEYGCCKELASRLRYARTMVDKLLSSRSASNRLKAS
Chain of Serine/threonine-protein kinase tousled-like 1 (Q9UKI8 whole entry): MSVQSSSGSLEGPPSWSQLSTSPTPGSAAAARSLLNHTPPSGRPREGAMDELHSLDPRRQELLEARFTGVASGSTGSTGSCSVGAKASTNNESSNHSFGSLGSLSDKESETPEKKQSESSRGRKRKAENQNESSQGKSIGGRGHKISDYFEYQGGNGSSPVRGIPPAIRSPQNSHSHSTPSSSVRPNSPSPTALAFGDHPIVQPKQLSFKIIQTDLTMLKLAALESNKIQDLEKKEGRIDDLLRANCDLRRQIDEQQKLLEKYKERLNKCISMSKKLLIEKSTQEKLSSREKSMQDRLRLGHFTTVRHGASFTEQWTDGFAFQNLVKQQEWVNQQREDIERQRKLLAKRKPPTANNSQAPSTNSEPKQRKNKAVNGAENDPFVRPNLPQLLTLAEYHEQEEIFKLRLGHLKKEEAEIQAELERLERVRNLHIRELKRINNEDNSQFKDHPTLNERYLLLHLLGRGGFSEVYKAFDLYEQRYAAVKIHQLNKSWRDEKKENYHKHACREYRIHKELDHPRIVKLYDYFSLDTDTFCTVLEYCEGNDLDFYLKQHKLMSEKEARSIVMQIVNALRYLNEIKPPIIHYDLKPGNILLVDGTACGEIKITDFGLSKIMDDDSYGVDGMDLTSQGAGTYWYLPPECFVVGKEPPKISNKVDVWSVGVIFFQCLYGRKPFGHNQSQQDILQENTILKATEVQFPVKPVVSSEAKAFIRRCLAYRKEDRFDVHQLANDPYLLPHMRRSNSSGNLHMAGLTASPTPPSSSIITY

With `CCOc1cc(N2CCC(O)CC2)ccc1Nc1ncc2c(n1)N(C)c1ccccc1C(=O)N2C` the IC50 [1] was greater than 50 µM, the inhibition [2] was 22.6% and the inhibition [3] was -6.7%. For the same compound, the inhibition at 50 µM [4] was -31.5%, the IC50 [5] was greater than 50 µM and the inhibition [6] was 2.2%. For the same compound, the inhibition [7] was 3.8%.
